According to PMC9068772, “Discovery of first-in-class nanomolar inhibitors of heptosyltransferase I reveals a new aminoglycoside target and potential alternative mechanism of action” (Scientific Reports, 2022):
Values joined by “and” are separate entries in the source; they are usually repeats but may differ in a detail not shown here. Equal entries are not always repeated.

How the values were obtained:
[1] = target: T1, Heptosyltransferase I (HepI) WT (Escherichia coli, UniProt P24173); assay: HepI inhibition, ADP/NADH coupled assay (wild type); type: biochemical, E. coli K12; conditions: for kcat: HepI WT in presence of inhibitor; for Ki: 10 μM ODLA, inhibitor varied
T1 construct: made in house; host or cells: E. coli One Shot BL-21-AI
Description: As previously reported[11],[14],[15], an ADP/NADH coupled assay was used to monitor HepI activity by monitoring the absorbance change at 340 nm at 37 °C on a Cary Bio 100 UV–Vis Spectrometer. Under normal conditions, the assay buffer was composed of 50 mM HEPES, 50 mM KCl, 10 mM MgCl2, pH 7.5. The coupled enzyme reaction additionally contained 100 μM phosphoenolpyruvate, 100 μM NADH, 100 μM dithiothreitol (DTT) and 0.05 U/μL of both pyruvate kinase and lactate dehydrogenase. 100 μM ADPH was used when ODLA concentration was varied and 100 μM ODLA was used when ADPH was varied. Once a stable baseline was established (~ 5 min), the reaction was initiated by addition of HepI to a final concentration of 50 nM or 100 nM (for high and lower substrate concentrations respectively) and all reported reaction rates are after background subtraction. When running 12 samples at once, plastic cuvette stirs and a repeat pipettor was used to inject 200 μL enzyme. Inhibition of HepI was monitored using the same ADP/NADH coupled assay, all conditions of the assay were the same as previously described unless otherwise stated. Ki values for each of the compounds were determined by varying compound final concentration from 100 μm to 10 nm, and a final concentration of 10 μM ODLA. Competition assays against ADPH were done with excess ODLA (100 μM) and varying ADPH from 2–0.25 μM. Competition assays against ODLA were done with excess ADPH (100 μM) and varying ODLA from 2–0.25 μM. Reactions were started with addition of enzyme and inhibitor was varied from 30–0.01 μM. Kinetics were fit to Lineweaver-Burke (Eq. 1), competitive (Eq. 2), non-competitive (Eq. 3), mixed (Eq. 4), Dixon (Eq. 5), or Cornish-Bowden (Eq. 6) models. All fitting and plotting was done through MATLAB R2018A.1 1/V1/[S]=KM/Vmax[S]+1/Vmax 2 V[S]=Vmax[S]/KM1+[I]/Ki+[S] 3 V[S]=Vmax[S]/1+([I]/Ki)/KM+[S] 4 V[S]=Vmax[S]/KM(1+[I]/Ki)+[S](1+[I]/αKi) 5 1/V[I]=KM1+I/Ki+[S]1+I/αKi/Vmax[S] 6 [S]/V[I]=KM1+I/Ki+[S]1+I/αKi/Vmax

HepI = target: T2, HepI (Escherichia coli, UniProt P24173); assay: Circular dichroism thermal melt of HepI; type: binding, E. coli K12; conditions: CD melt, HepI plus ligand alone
T2 construct: made in house; host or cells: E. coli One Shot BL-21-AI
Description: Circular dichroism melt experiments were performed in a Jasco J-810 spectropolarimeter in Starna 21-Q-2 cells (minimum volume 400 µL) sealed with Teflon tape to prevent evaporation. Parameters include 3 accumulations of data collected between 195–275 nm as a function of temperature (10–95 °C with 5° increments) at a ramp rate of 2°/min and a scanning rate of 50 nm/min. Samples were prepared by diluting a mixture of 5 μM HepI and some combination of 250 μM substrate/product and/or 100 μM inhibitor in a buffer of 10 mM Tris–HCl and 100 mM KCl (pH = 7.5). CD data was analyzed via in house script written in MATLAB R2018A that average a set of triplicate data, normalizes to a percent unfolded (assuming the protein is fully folded at 5 °C) at 222 nm as a function of temperature and fits to a sigmoid curve to determine the melt temperature (TM).

T1 sequence (P24173 whole entry): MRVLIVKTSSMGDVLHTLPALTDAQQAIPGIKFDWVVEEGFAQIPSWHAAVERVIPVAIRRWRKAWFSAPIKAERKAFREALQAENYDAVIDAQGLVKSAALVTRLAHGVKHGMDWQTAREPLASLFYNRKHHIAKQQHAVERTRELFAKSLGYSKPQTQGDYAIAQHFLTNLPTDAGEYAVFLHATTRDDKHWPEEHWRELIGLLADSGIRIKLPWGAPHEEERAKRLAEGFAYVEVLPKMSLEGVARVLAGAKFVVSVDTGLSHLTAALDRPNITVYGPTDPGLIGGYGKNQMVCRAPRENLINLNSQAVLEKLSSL
T2 sequence (P24173 whole entry): as above

SMILES | kcat [1] | Ki ([1]; HepI WT) | Type of inhibition with ODLA ([1]; HepI WT, excess ADPH, ODLA varied, Lineweaver–Burk, Dixon, Cornish-Bowden) | Extent of unfolding of HepI with ligand (HepI) | Melting temperature (Tm) of HepI with ligand (HepI)
NCC[C@H](O)C(=O)N[C@@H]1C[C@H](N)[C@@H](O[C@H]2O[C@H](CN)[C@@H](O)[C@H](O)[C@H]2O)[C@H](O)[C@H]1O[C@H]1O[C@H](CO)[C@@H](O)[C@H](N)[C@H]1O [Amikacin] | 0.138 ± 0.001 s⁻¹ | 4.3 µM and 4.26 µM | – | – | –
NC[C@H]1O[C@H](O[C@H]2[C@H](O)[C@@H](O[C@H]3O[C@H](CO)[C@@H](O)[C@H](N)[C@H]3O)[C@H](N)C[C@@H]2N)[C@H](N)[C@@H](O)[C@@H]1O [Kanamycin B] | 0.149 ± 0.007 s⁻¹ | 0.99 ± 0.119 µM | Competitive | – | –
Nc1ncnc2c1ncn2[C@@H]1O[C@H](COP(=O)(O)OP(=O)(O)O[C@@H]2O[C@H]([C@@H](O)CO)[C@@H](O)[C@H](O)[C@@H]2O)[C@@H](O)[C@H]1O [ADPH, ADP-L-glycero-β-D-manno-heptose] | – | – | – | ~ 100% | does not induce any changes in the melting temperature
Nc1ncnc2c1ncn2[C@@H]1O[C@H](COP(=O)(O)OP(=O)(O)O)[C@@H](O)[C@H]1O [ADP, Adenosine disphosphate] | – | – | – | – | melts similarly to HepI with ADPH
